Test results taken from patent publication US5663177A (SmithKline Beecham Corporation, priority 1995, dated 1997).

How the values were obtained:
[1] = system: wild-type (AUX-B 1) Chinese Hamster ovary cells; test: CHO Microtiter Cytotoxicity Assay (XTT), wild-type (AUX-B1); type: cell-based; details: Cricetulus griseus, AuxB1, 72 h, 3 days, read-out: Cytotoxicity IC50, Wildtype (AUX-B1)
Method: (§1) The in vitro assays used to test the compound of the present invention for antitumor activity are well-known. A generalized description of these assays follows.
(§2) Chinese Hamster ovary cells are grown in Alpha MEM Medium with L-glutamine and nucleosides and containing 10% fetal bovine serum and 100 units per mL penicillin-streptomycin in 75 cm^2 canted neck tissue culture flasks. They are harvested from these flasks using 0.5% trypsin. Microtiter plates (96-well, sterile, flat bottom) (Corning 25860) are seeded with 1.6×10^3 wild-type (AUX-B 1) Chinese Hamster ovary cells per well or 2×10^3 multidrug resistant (CH^R C5) Chinese Hamster ovary cells per well. The plates are incubated at 37° C., 5% CO2 overnight to allow the cells to attach. The outside wells of each plate are not used, due to evaporation during the incubation time. They are filled with medium and used as blanks. The next day, the medium is aspirated from the wells and 180 μL of fresh medium is added to each well. Compounds are diluted from stock solution in DMSO into fresh medium to a 10X concentration containing 2% DMSO. Twenty μL of this is then added to the 180 μL, of fresh medium in the wells. The plates are then incubated for another 3 days at 37° C., 5% CO2. Eight mg of XTT (SIGMA X-4251) is dissolved in 100 μL of DMSO which is then added to 3.9 mL of phosphate buffered saline without cations (PBS). Phenazine methosulfate (SIGMA P-9625) is dissolved in PBS to a concentration of 3 mg/mL and 20 μL of this is added to the XTT solution. Fifty μL of this XTT/PMS solution is added to each well of the microliter plate and the plates are incubated for 90 minutes at 37° C., 5% CO2 (until the OD450 ~1.0). The plate is then read on a UV Max plate reader, using wells without cells (i.e., containing only 200 μL of medium and 50 μL of XTT/PMS solution) as a background control.

[2] = system: multidrug resistant (CH^R C5) Chinese Hamster ovary cells; test: CHO Microtiter Cytotoxicity Assay (XTT), multidrug resistant (CH^R C5); type: cell-based; details: Cricetulus griseus, CHRC5, 72 h, 3 days
Method: as §1, §2

[3] = system: P388; test: Cytotoxicity IC50, P388; type: cell-based; details: Mus musculus
[4] = system: P388; test: Efficacy in mouse tumor model P388 (in vivo)
Method: The cytotoxicity and efficacy of the compound of the present invention was also tested in vivo using the well-known P388 mouse tumor model.

[5] = system: solid tumor cancers, particularly ovarian cancer and non-small cell lung carcinoma; details: humans; cited from earlier work
[6] = background statement; cited from earlier work
[7] = background statement; cited from earlier work; remark: listed apart in the source
[8] = system: topoisomerase I; details: background statement; cited from earlier work
[9] = system: topoisomerase II; details: background statement; cited from earlier work

Row | SMILES | IC50 [1] | IC50 [2] | IC50 [3] | water solubility [6] | other results
1 | CC[C@@]1(O)C(=O)OCc2c1cc1n(c2=O)Cc2cc3c(CN(C)C)c(O)ccc3nc2-1 [Topotecan, 9-dimethylaminomethyl-10-hydroxycamptothecin] | 790 nM | 2300 nM | 30 nM |  | Efficacy in Mouse Tumor Models, % Inc. in Lifespan, P388 ([4]; dose 14.4 mg/kg, route not given): 156%; efficacy in clinical tests [5]: demonstrated efficacy against several solid tumor cancers, particularly ovarian cancer and non-small cell lung carcinoma in humans
2 | CC[C@@]1(O)C(=O)OCc2c1cc1n(c2=O)Cc2c-1nc1ccc(O)c3c1c2CN(C)C3 [Formula I, S-9-ethyl-2,3-dihydro-4,9-dihydroxy-2-methyl-1H,12H-benzo[ij]pyrano[3', 4':6,7]indolizino[1,2-c][2,6]naphthyridine-10,13(H,15H)-dione] | 52 nM | 840 nM | 24 nM |  | Efficacy in Mouse Tumor Models, % Inc. in Lifespan, P388 ([4]; dose 40 mg/kg ip): 111%; biological activity (cytotoxicity and efficacy in mouse tumor models) versus topotecan ([4]; summary of Table I): comparable to topotecan
3 | CC[C@@]1(O)C(=O)OCc2c1cc1n(c2=O)Cc2cc3c(N)cccc3nc2-1 [9-aminocamptothecin, (S)-10-amino-4-ethyl-4-hydroxy-1H-pyrano[3',4':6,7]indolizino[1,2-b]quinoline-3, 14(4H,12H)-dione] |  |  |  | limited water solubility | 
4 | CCc1c2c(nc3ccc(OC(=O)N4CCC(N5CCCCC5)CC4)cc13)-c1cc3c(c(=O)n1C2)COC(=O)[C@]3(O)CC [CPT-11, (S)-[1,4'-bipiperidine]-1'-carboxylic acid,4,11-diethyl-3,4,12,14-tetrahydro-4-hydroxy-3, 14-dioxo-1H-pyrano[3',4':6,7]indolizino[1,2-b]quinolin-9-yl] |  |  |  |  | toxicity [7]: adverse toxicity profile
5 | CC[C@@]1(O)C(=O)OCc2c1cc1n(c2=O)Cc2cc3ccccc3nc2-1 [Camptothecin] | 15 nM | 35 nM | 12 nM | water-insoluble | inhibition of topoisomerase I [8]: known to inhibit topoisomerase I; effect on topoisomerase II [9]: no effect on topoisomerase II
